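How tested: cells in 96-well plates exposed to compound for 48 hours at five concentrations. The concentration for 50% growth inhibition is given as GI50. TGI: concentration producing complete growth inhibition.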
Tests used:
Experiment in all cases: NCI-60 cell line screen, 48 h
MALME-3M melanoma = system: MALME-3M melanoma
NCI-H23 lung = system: NCI-H23 lung
UACC-62 melanoma = system: UACC-62 melanoma
COLO 205 colon = system: COLO 205 colon
OVCAR-3 ovarian = system: OVCAR-3 ovarian
MCF7 breast = system: MCF7 breast
SNB-19 CNS = system: SNB-19 CNS
T-47D breast = system: T-47D breast
NCI-H522 lung = system: NCI-H522 lung
SR leukemia = system: SR leukemia

SMILES: CN(C)/C=C/c1ccnc2c1C(=O)c1ccccc1C2=O
- TGI (MALME-3M melanoma): 5.09 µM
- TGI (NCI-H23 lung): 7.17 µM
- TGI (UACC-62 melanoma): 2.9 µM
- TGI (COLO 205 colon): > 55.1 µM
- TGI (OVCAR-3 ovarian): > 100 µM
- TGI (MCF7 breast): > 44.7 µM
- TGI (SNB-19 CNS): 25.6 µM
- TGI (T-47D breast): > 85 µM
- TGI (NCI-H522 lung): 24.2 µM

SMILES: N#Cc1ccc(/C=C2\Cc3ccccc3C2=O)cc1
- TGI (NCI-H23 lung): > 100 µM
- TGI (UACC-62 melanoma): > 100 µM
- TGI (COLO 205 colon): > 100 µM
- TGI (OVCAR-3 ovarian): > 100 µM
- TGI (MCF7 breast): > 100 µM
- TGI (SNB-19 CNS): > 100 µM
- TGI (T-47D breast): > 100 µM
- TGI (SR leukemia): > 100 µM
- TGI (NCI-H522 lung): > 100 µM

SMILES: CC(C)(C)C(=O)Cc1cc2c(cc1C(=O)O)S(=O)(=O)NC(C(C)(C)C)=C2
- TGI (MALME-3M melanoma): > 100 µM
- TGI (NCI-H23 lung): > 100 µM
- TGI (UACC-62 melanoma): > 100 µM
- TGI (COLO 205 colon): > 100 µM
- TGI (OVCAR-3 ovarian): > 100 µM
- TGI (SNB-19 CNS): > 100 µM
- TGI (SR leukemia): > 100 µM
- TGI (NCI-H522 lung): > 100 µM

SMILES: COC[C@H](Cc1ccccc1)N=Cc1ccccc1
- TGI (MALME-3M melanoma): > 100 µM
- TGI (NCI-H23 lung): > 100 µM
- TGI (UACC-62 melanoma): > 100 µM
- TGI (COLO 205 colon): > 100 µM
- TGI (MCF7 breast): > 100 µM
- TGI (SNB-19 CNS): > 100 µM
- TGI (T-47D breast): > 100 µM
- TGI (SR leukemia): > 100 µM
- TGI (NCI-H522 lung): > 100 µM

SMILES: CC(C)(Oc1ccc(C2C[C@H]2Cl)cc1)C(=O)O (stereo not given in full)
- TGI (UACC-62 melanoma): > 100 µM
- TGI (COLO 205 colon): > 100 µM
- TGI (OVCAR-3 ovarian): > 100 µM
- TGI (MCF7 breast): > 100 µM
- TGI (SNB-19 CNS): > 100 µM
- TGI (T-47D breast): > 100 µM
- TGI (SR leukemia): > 100 µM
- TGI (NCI-H522 lung): > 100 µM

SMILES: CN(C)CCCN1c2ccc3ccccc3c2Sc2cccc(Cl)c21
- TGI (MALME-3M melanoma): 23 µM
- TGI (NCI-H23 lung): 35.4 µM
- TGI (UACC-62 melanoma): 4.82 µM
- TGI (COLO 205 colon): 3.51 µM
- TGI (OVCAR-3 ovarian): 10.6 µM
- TGI (SNB-19 CNS): 22.7 µM
- TGI (T-47D breast): 7.17 µM
- TGI (NCI-H522 lung): 10.5 µM

SMILES: CC(=S)NC1C(Oc2ccc3c(C)cc(=O)oc3c2)OC(CO)C(O)C1O (stereo not given)
- TGI (UACC-62 melanoma): > 100 µM
- TGI (OVCAR-3 ovarian): > 100 µM
- TGI (MCF7 breast): > 100 µM
- TGI (SNB-19 CNS): > 100 µM
- TGI (T-47D breast): > 100 µM
- TGI (SR leukemia): > 100 µM

SMILES: COc1ccc2[nH]c3c(C)c4ccnc(NCCCN(C)CCCNC(=O)NCCCN(C)CCCNc5nccc6c(C)c7[nH]c8ccc(OC)cc8c7c(C)c56)c4c(C)c3c2c1
- TGI (NCI-H23 lung): > 19 µM
- TGI (UACC-62 melanoma): > 11.6 µM
- TGI (COLO 205 colon): 0.858 µM
- TGI (OVCAR-3 ovarian): 8.29 µM
- TGI (SNB-19 CNS): 2.13 µM
- TGI (T-47D breast): 2.29 µM

SMILES: CCO/C=N/C1=C(C#N)C(c2ccc(OC)c(OC)c2)c2c(-c3ccccc3)nn(-c3ccccc3)c2O1 (stereo not given)
- TGI (MALME-3M melanoma): 51.2 µM
- TGI (NCI-H23 lung): 31.1 µM
- TGI (UACC-62 melanoma): 27.6 µM
- TGI (COLO 205 colon): 27.1 µM
- TGI (OVCAR-3 ovarian): 77.1 µM
- TGI (MCF7 breast): 53.1 µM
- TGI (SNB-19 CNS): 29.6 µM
- TGI (T-47D breast): 60.5 µM
- TGI (NCI-H522 lung): 38.2 µM

SMILES: CCN1CCc2sc3[nH]c(=S)n(C)c(=O)c3c2C1
- TGI (MALME-3M melanoma): > 100 µM
- TGI (NCI-H23 lung): > 100 µM
- TGI (UACC-62 melanoma): > 100 µM
- TGI (COLO 205 colon): > 100 µM
- TGI (OVCAR-3 ovarian): > 100 µM
- TGI (MCF7 breast): > 100 µM
- TGI (SNB-19 CNS): > 100 µM
- TGI (T-47D breast): > 100 µM
- TGI (NCI-H522 lung): > 100 µM

SMILES: O=c1[nH]/c(=C/c2ccc(OCc3ccccc3)cn2)c(=O)[nH]/c1=C/c1cccnc1
- TGI (MALME-3M melanoma): > 27.6 µM
- TGI (COLO 205 colon): 6.13 µM
- TGI (MCF7 breast): > 100 µM
- TGI (SNB-19 CNS): > 100 µM
- TGI (T-47D breast): > 100 µM
- TGI (SR leukemia): > 100 µM
- TGI (NCI-H522 lung): 0.588 µM

SMILES: O=c1n(CCO)nc2n1CCCN2
- TGI (MALME-3M melanoma): > 100 µM
- TGI (NCI-H23 lung): > 100 µM
- TGI (UACC-62 melanoma): > 100 µM
- TGI (COLO 205 colon): > 100 µM
- TGI (OVCAR-3 ovarian): > 100 µM
- TGI (MCF7 breast): > 100 µM
- TGI (SNB-19 CNS): > 100 µM
- TGI (T-47D breast): > 100 µM
- TGI (SR leukemia): > 100 µM

SMILES: c1ccc(C2(c3cc4ccccc4[nH]3)OCCO2)cc1
- TGI (NCI-H23 lung): > 100 µM
- TGI (UACC-62 melanoma): > 100 µM
- TGI (COLO 205 colon): 65.2 µM
- TGI (OVCAR-3 ovarian): > 100 µM
- TGI (MCF7 breast): > 100 µM
- TGI (SNB-19 CNS): > 100 µM
- TGI (T-47D breast): > 100 µM
- TGI (SR leukemia): > 100 µM

SMILES: COC[C@@H](N=Cc1ccc(OC)cc1)C(C)C
- TGI (MALME-3M melanoma): > 100 µM
- TGI (NCI-H23 lung): > 100 µM
- TGI (UACC-62 melanoma): > 100 µM
- TGI (COLO 205 colon): > 100 µM
- TGI (MCF7 breast): > 100 µM
- TGI (T-47D breast): > 100 µM
- TGI (SR leukemia): > 100 µM
- TGI (NCI-H522 lung): > 100 µM

SMILES: COc1ccc(C2Oc3cc(OC)c(O)cc3[C@@H]2C)cc1 (stereo not given in full)
- TGI (MALME-3M melanoma): > 100 µM
- TGI (NCI-H23 lung): > 100 µM
- TGI (COLO 205 colon): > 100 µM
- TGI (OVCAR-3 ovarian): > 100 µM
- TGI (SNB-19 CNS): 19.5 µM
- TGI (NCI-H522 lung): 38 µM

SMILES: Cc1[nH]c(=O)nc2c1C(=O)N(C(C)C)C(NC(C)C)S2 (stereo not given)
- TGI (MALME-3M melanoma): > 100 µM
- TGI (NCI-H23 lung): > 100 µM
- TGI (UACC-62 melanoma): > 100 µM
- TGI (COLO 205 colon): > 100 µM
- TGI (OVCAR-3 ovarian): > 100 µM
- TGI (MCF7 breast): > 100 µM
- TGI (SNB-19 CNS): > 100 µM
- TGI (T-47D breast): > 100 µM
- TGI (NCI-H522 lung): > 100 µM

SMILES: CN1C(=N\S(=O)(=O)c2ccc(Cl)cc2)/C(=N/N=P(c2ccccc2)(c2ccccc2)c2ccccc2)c2ccccc21
- TGI (MALME-3M melanoma): > 100 µM
- TGI (NCI-H23 lung): > 100 µM
- TGI (UACC-62 melanoma): > 100 µM
- TGI (COLO 205 colon): > 100 µM
- TGI (OVCAR-3 ovarian): > 100 µM
- TGI (SNB-19 CNS): > 100 µM
- TGI (SR leukemia): > 100 µM
- TGI (NCI-H522 lung): > 100 µM

SMILES: CC1=CC(=O)C[C@]2(C)[C@@H](O)CC(C(C)CO)C[C@@H]12 (stereo not given in full)
- TGI (NCI-H23 lung): > 100 µM
- TGI (UACC-62 melanoma): > 100 µM
- TGI (COLO 205 colon): > 100 µM
- TGI (OVCAR-3 ovarian): > 100 µM
- TGI (MCF7 breast): > 100 µM
- TGI (SNB-19 CNS): > 100 µM
- TGI (T-47D breast): > 100 µM

SMILES: Clc1ccc(CCn2ccc3ccccc32)c(Cl)c1
- TGI (MALME-3M melanoma): > 100 µM
- TGI (NCI-H23 lung): > 100 µM
- TGI (UACC-62 melanoma): > 100 µM
- TGI (COLO 205 colon): > 100 µM
- TGI (OVCAR-3 ovarian): > 100 µM
- TGI (MCF7 breast): > 100 µM
- TGI (SNB-19 CNS): > 100 µM
- TGI (SR leukemia): > 100 µM
- TGI (NCI-H522 lung): > 100 µM

SMILES: CCCCCCCCCCCCCCCCCc1nc(C#N)c(N)o1
- TGI (UACC-62 melanoma): > 100 µM
- TGI (MCF7 breast): > 100 µM
- TGI (SNB-19 CNS): > 100 µM
- TGI (SR leukemia): 33.3 µM

SMILES: OB1OCc2ccccc21
- TGI (MALME-3M melanoma): > 100 µM
- TGI (NCI-H23 lung): > 100 µM
- TGI (UACC-62 melanoma): > 100 µM
- TGI (COLO 205 colon): > 100 µM
- TGI (OVCAR-3 ovarian): > 100 µM
- TGI (MCF7 breast): 82.1 µM
- TGI (SNB-19 CNS): > 100 µM
- TGI (T-47D breast): > 100 µM
- TGI (SR leukemia): > 100 µM

SMILES: Cc1ccc(-n2cc(-c3ccc(Cl)cc3)c3c(NNC(=S)NCc4ccccc4)ncnc32)cc1
- TGI (MALME-3M melanoma): > 100 µM
- TGI (NCI-H23 lung): 60.4 µM
- TGI (UACC-62 melanoma): 64.8 µM
- TGI (COLO 205 colon): 27.3 µM
- TGI (OVCAR-3 ovarian): 37.4 µM
- TGI (SNB-19 CNS): > 100 µM
- TGI (T-47D breast): > 100 µM
- TGI (SR leukemia): 21.5 µM
- TGI (NCI-H522 lung): 13.2 µM

SMILES: COCN1C(=O)[C@@H]2C[C@@H](OC/C=C/CBr)CN2C(=O)c2ccccc21
- TGI (MALME-3M melanoma): 35.3 µM
- TGI (NCI-H23 lung): 81.5 µM
- TGI (UACC-62 melanoma): 71.5 µM
- TGI (COLO 205 colon): 42.8 µM
- TGI (MCF7 breast): 33.7 µM
- TGI (SNB-19 CNS): 67.2 µM
- TGI (T-47D breast): 59 µM
- TGI (NCI-H522 lung): 25.9 µM

SMILES: O=C(CCc1nnc2s/c(=C\c3ccc(Cl)cc3Cl)c(=O)n12)Nc1cc(Cl)c(Cl)cc1Cl
- GI50 (MALME-3M melanoma): > 100 µM
- TGI (MALME-3M melanoma): > 100 µM
- GI50 (NCI-H23 lung): > 100 µM
- TGI (NCI-H23 lung): > 100 µM
- GI50 (UACC-62 melanoma): > 100 µM
- TGI (UACC-62 melanoma): > 100 µM
- GI50 (COLO 205 colon): > 100 µM
- TGI (COLO 205 colon): > 100 µM
- GI50 (OVCAR-3 ovarian): > 100 µM
- TGI (OVCAR-3 ovarian): > 100 µM
- GI50 (SR leukemia): > 100 µM
- TGI (SR leukemia): > 100 µM
- TGI (NCI-H522 lung): > 100 µM
